The record followed here is US7906332B2, “Method of preparing basement membrane, method of constructing basement membrane specimen, reconstituted artificial tissue using the basement membrane specimen and process for producing the same” (Japan Science And Technology Agency, priority 2001, dated 2011).

The subject of assay [1] is alveolar epithelial cells. The assay can be described thus: Construction of a basement membrane according to the MMP inhibition method. Type of assay: cell-based. The following applies: 2 weeks on fib, 1% fetal bovine serum, no basement membrane components added. As to the method: Alveolar epithelial cells were cultured on collagen fiber (fib) with the only addition of 1% fetal bovine serum and synthetic inhibitor of matrix metalloproteinase (MMP) and without the addition of basement membrane components for 2 weeks. As MMP inhibitor, GM6001 (Calbiochem) and MMP-2/MMP-9 inhibitor I (Calbiochem) were used. 1.1 μM of GM6001 and 310 μM of MMP-2/MMP-9 inhibitor I (2/9 inhibitor) were added respectively.

The test system of assay [2] is type II alveolar epithelial cells. The assay can be described thus: Basement membrane formation by alveolar epithelial cells on collagen fiber (fib) with Matrigel or TGF-β (T2-fib-MG, T2-fib-TGFβ). Type of assay: cell-based, rat. The following applies: fibrous collagen substratum, TGF-β in upper and lower wells (T2-fib-TGFβ). From the text:
The present inventors made a study on a process to form a basement membrane structure just beneath the basal surface of epithelial cells on a fibrous collagen matrix by the coculture with fibroblasts-embedded collagen gel, and by the culture in the presence of TGF-β or Matrigel. […] However, it was also confirmed that type II alveolar epithelial cells were unable to constitute a basement membrane without the supply of, for example, a fibroblast, exogenous basement membrane components from Matrigel or a growth factor TGF-β, since the endogenous basement membrane components from type II alveolar epithelial cells are not enough for the cells to assemble a basement membrane structure effectively. […]

As for `CNC(=O)[C@H](Cc1c[nH]c2ccccc12)NC(=O)[C@@H](CC(=O)NO)CC(C)C` [GM6001], the “basement membrane structure formation beneath the cells” value in assay [1] (1.1 μM) was “complete basement membrane structure (▴) was formed”.

`O=C(O)[C@@H](Cc1ccccc1)NS(=O)(=O)c1ccc(-c2ccccc2)cc1` [MMP-2/MMP-9 inhibitor I]: the “basement membrane structure formation beneath the cells” value in assay [1] (310 μM) is reported as “complete basement membrane structure (▴) was formed”.

As for TGF-β, the “basement membrane formation by type II alveolar epithelial cells” value in assay [2] is “a basement membrane was formed”.
